Test results from patent publication US20150320783A1, “N-METHY[…] RELATED SUBSTANCES FOR USE IN TREATING / LESSENING THE OCCURRENCE OF HOT FLASHES RELATED TO MENOPAUSE” (DSM IP ASSETS B.V., priority 2013, published 2015).
Entries after “also recorded” stand apart in the source; their conditions may differ.

Experiments:
Assay type in all cases: in vivo, rat
[1] = Body weight of ovariectomized female rats; conditions: for body weight: FIG. 6A, dietary NMS vs control diet, estradiol implanted, throughout the experiment
From the text: (§1) The animals arrived at approximately 60 days of age, and were placed on specific diets throughout the study (to approximately 160 days of age). The diets were formulated and provided by Dyets Inc. (Bethlehem, Pa.) and are based on a modified AIN-93G diet. These diets were fed ad libitum. Two weeks after arrival, at approximately […] of age, the animals were ovariectomized, allowed to recover for three weeks, and then placed on defined diets. In the first study, these diets contained 0, 0.08, 0.48, 3.2, 18.5, 185, or 3700 μg/kg/day of NMS dihydrochloride (FIG. 2). In the second, follow-up study, the diets contained no NMS (control), NMS oxalate (18.5 or 55.5 μg/kg/d), or milled Zanthoxylum seed in quantities that supplied NMS-glucoside at equivalent doses (18.5 or 55.5 μg/kg/d; FIG. 8). The NMS and NMS-glucoside content was verified using liquid chromatography with mass spectrometric etection. Extraction methods were similar to those of Yanase et al., 2010.
(§2) All diets were fed for 2 weeks prior to the first behavioral assessment (open field). Positive control animals received a 5.0 mm subcutaneous silastic capsule implant packed with a crystalline 17β-estradiol and cholesterol mixture (25%, 0.058 inch inner diameter, 0.077 inch outer diameter; Dow Corning #508-006). Animals were then examined for locomotor activity (open field) and in two behavioral assays to assess mood (elevated plus maze and swim test) separated by two weeks in-between each assay. Two weeks after the final behavioral task (swim test), the animals were anesthetized and their physiological response to an experimentally-induced hot flash was tested. After the temperature monitoring was complete, tissue was harvested while the animals were still anesthetized.

[2] = system: ovariectomized female rats; experiment: Uterine weight (uterotrophic effect) in ovariectomized female rats; conditions: vs ovariectomized controls; for uterine weight: first study, FIG. 6D, after 80 days of supplementation; for uterine weight / uterine growth: follow-up study, FIG. 11A
From the text: as §1, §2

[3] = system: ovariectomized female rats; experiment: CGRP-induced hot flash response (skin temperature) in ovariectomized rats
From the text: as §1, §2
Two weeks after arrival, each animal was anesthetized via isoflurane inhalation and the dorsal mid-lumbar area was shaved and swabbed with surgical scrub, iodine and alcohol. The animal was then placed on a warm heat pad covered by a sterile cloth/pad in ventral recumbency with tail towards surgeon. A 2-3 cm dorsal midline skin incision was made halfway between the caudal edge of the ribcage and the base of the tail. A single transverse incision of 5.5-10 mm long was made into the muscle wall on both the right and left sides approximately ⅓ of the distance between the spinal cord and the ventral midline. The ovary and the oviduct were exteriorized through the muscle wall. A hemostat was clamped around the uterine vasculature between the oviduct and uterus and the uterine vasculature was ligated with dissolvable suture. Each ovary and part of the oviduct was removed with single cuts through the oviducts near the ovary. The hemostat was removed, and the remaining tissue replaced into the peritoneal cavity. The ovary on the other side was removed in a similar manner. The muscle incision is not sutured. Sterile wound clips were used to close the skin incision. Animals were monitored daily for signs of infection or morbidity.
Animals were anesthetized with intraperitoneal co-injection of urethane (750 mg/kg) and α-chloralose (60 mg/kg). […] Thermistor probes (ADI Instruments, Colorado Springs, Colo.) were taped to the plantar surfaces of one hind foot. Forty minutes later, after anesthesia-induced hypothermia had stabilized, the basal skin temperature was recorded. Temperature monitoring then occurred at 5-second intervals throughout the remainder of the experiment. Calcitonin gene related peptide (CGRP; 10 μg/kg, i.v.) dissolved in saline was then injected via the tail vein. A maximum of eight animals were tested at the same time due to limitations on instrumental throughput. Cage mates were always tested together in order to avoid the stresses of single-housing and the potential stress hormone effects on body temperature. Therefore only four groups could be tested within any one given day.

[4] = system: ovariectomized female rats; experiment: Behavioral measures of mood (open field, elevated plus maze, swim test)
From the text: as §2, with “After the temperature monitoring was complete, tissue was harvested while the animals were still anesthetized.” left out
Animals were tested in the open field to measure overall locomotor activity and basal anxiety state. […] Rats were placed in the middle of the chamber and behavior in the open field was recorded for thirty minutes with a digital camera and measured by software (AnyMaze, Stoelting Co., Inc.). The following parameters were analyzed: a) total distance traveled; b) time in center; c) center entries; and d) number of fecal boli excreted.
Animals were tested on the elevated plus maze to measure anxiety-related behavior. […] Each rat was placed in the central platform facing one of the open arms, and its behavior was recorded during a 5-min testing period with video capture software (AnyMaze). […]

plasma estradiol = experiment: Circulating (plasma) estradiol levels in ovariectomized female rats; conditions: for plasma estradiol: first study, FIG. 5, dietary NMS supplementation, estradiol supplemented animals
From the text: as §1, §2

[5] = system: ovariectomized female rats; experiment: Forced swim test (depressive-like behaviors); conditions: first study, FIG. 7A; estradiol implanted
Procedure: Each rat was examined in the swim test for depressive-like behaviors. The test was performed over two consecutive days since it is a measure of an adaptive response to a perceived inescapable situation. The first test establishes to the animal that it is an inescapable situation, and the second test measures the animal's degree of passive coping derived from an unwillingness to maintain effort in an inescapable situation. Typical antidepressants limit the amount of passive coping (immobility) and promote the amount of active coping (swimming/climbing). On day one (0800 h to 1300 h), animals were acclimated to the test by placing them in a plexiglass cylindrical container (45 cm×20 cm) filled with 30 cm of fresh water (25° C.) for fifteen minutes, after which they were toweled dried and returned to their home cage. On day two (24 hrs later) the test was performed for a total swim time of five minutes, after which the rats were toweled dried and returned to their home cage. Both trials were recorded by a digital video camera was secured to the ceiling above the cylinders and connected to a laptop. Total time spent swimming and immobile was measured real-time by behavioral software (Anymaze, Stoelting Co.), and scored post hoc by a blinded experimenter from captured video. […]

[6] = first study, representative data FIG. 3, 0.48 ug/kg/d NMS through diet vs untreated controls
[7] = first study, dietary NMS, dose not stated, estradiol subcutaneous, no dietary NMS (positive control)
[8] = first study, dietary NMS, dose not stated, estradiol subcutaneous, no dietary NMS (positive control), CGRP 10 μg/kg i.v.
[9] = follow-up study, FIG. 9, milled Zanthoxylum seed supplying NMS-glucoside 18.5 or 55.5 μg/kg/d, NMS oxalate 18.5 or 55.5 μg/kg/d, or estradiol, vs untreated controls

Row | SMILES | body weight ([1]; first study) | weight change as a percentage of original weight ([1]; first study, FIG. 6B and C, throughout or at the end of the study) | uterine weight [2] | uterine weight / uterine growth [2] | basal skin temperature ([3]; first study, FIG. 3 and 4, 18.5 ug/kg/d NMS through diet vs untreated controls) | CGRP response above calculated baseline (skin temperature) [3, 6] | basal skin temperature [3, 6] | CGRP response above calculated baseline (skin temperature) ([3]; first study, representative data FIG. 3, 18.5 ug/kg/d NMS through diet vs untreated controls) | basal (baseline) skin temperature [3, 7] | CGRP-induced hot flash response [3, 8] | CGRP-induced hot flash response [3, 9] | behavioral measures of mood ([4]; first study, FIG. 7, dietary NMS) | behavioral measures of mood / mood-related behaviors ([4]; follow-up study, FIG. 10) | plasma estradiol (plasma estradiol) | non-uterine estradiol secretion (plasma estradiol; results summary) | body weight throughout the experiment ([1]; follow-up study, FIG. 11B, estradiol implanted vs all other groups) | time immobile during the second session of the forced swim test [5]
1 | CNCCc1c[nH]c2ccc(O)cc12 [NMS, N-methylserotonin] | did not alter body weight | not different between dietary treatments | did not alter uterine weight | did not alter uterine weight | lower basal temperatures; also recorded: decreased basal skin temperature | lower CGRP responses | lower basal temperatures | lower CGRP responses | reduced baseline skin temperature | blunted the CGRP-induced hot flash response | blunted the CGRP-induced hot flash response | did not alter behavioral measures of mood | did not alter behavioral measures of mood | increased plasma estradiol in a dose-dependent manner | tripled |  | 
2 | CNCCc1c[nH]c2ccc(O[C@@H]3O[C@H](CO)[C@@H](O)[C@H](O)[C@H]3O)cc12 [NMS-glucoside, N-methylserotonin 5-O-β-glucoside] |  |  |  |  |  |  |  |  |  |  | blunted the CGRP-induced hot flash response |  |  |  |  |  | 
3 | C[C@]12CC[C@@H]3c4ccc(O)cc4CC[C@H]3[C@@H]1CC[C@@H]2O [estradiol, 17β-estradiol, reference compound] | significantly lower body weight |  | significantly higher uterine weights | significantly higher uterine weights |  |  |  |  | lowest basal temperatures | lowest responses to CGRP | blunted the CGRP-induced hot flash response |  |  | highest levels of plasma estradiol |  | significantly lower body weight | spent less time immobile
